This note sets out measurements from BindingDB's records for doi:10.1016/j.bmcl.2013.02.064 (Toronto General Research Institute, 2013).

Molecules are shown by their SMILES.

A short description of the assay: Inhibition of FCgamma receptor in human PBMC assessed as inhibition of opsonized RBC phagocytosis incubated for 1 hr prior to RBC addition measured after 2 hrs by monocyte monolayer assay.

In the case of `Cc1cc(SSc2cc(C)nn2-c2ccccc2)n(-c2ccccc2)n1`, the IC50 stood at 100 nM.

A word on the IC50: it is the concentration needed to halve the response being measured.
